Here are results for two compounds from US20260347365A1, “COMPOUND FOR REGULATING AND CONTROLLING 15-PGDH ACTIVITY AND PREPARATION METHOD THEREFOR” (SCINNOHUB PHARMACEUTICAL CO.,LTD, priority 2023, published 2026).

One may read the IC50 as the concentration that gives 50% inhibition.

The target in this assay is T1, 15-PGDH (Homo sapiens, UniProt P15428).
T1 construct: purchased Sino Biological Inc. 11205-H08E
T1 sequence (P15428 1-266): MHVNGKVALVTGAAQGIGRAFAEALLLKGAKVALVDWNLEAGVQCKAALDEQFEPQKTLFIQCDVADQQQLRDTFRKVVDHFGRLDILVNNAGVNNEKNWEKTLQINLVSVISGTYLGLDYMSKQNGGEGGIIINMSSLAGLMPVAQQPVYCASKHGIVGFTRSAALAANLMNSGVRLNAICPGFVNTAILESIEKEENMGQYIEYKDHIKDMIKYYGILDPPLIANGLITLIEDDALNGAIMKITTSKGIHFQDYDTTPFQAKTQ
As to the kind of experiment: Detection of Activity of 15-PGDH Kinase (inhibition of 15-PGDH enzyme). The format is biochemical. As to conditions: class symbols; substrates β-NAD and PGF2α, pH 7.5, fluorescence Ex/Em=340/450; read-out: IC50. The protocol: • a. A solution of pH 7.5 containing 50 mM Tris-HCl and 0.01% Tween 20 was prepared with ultrapure water as a reaction buffer; • b. a 10 mM mother liquor of the compound to be tested was prepared with DMSO, and then the reaction buffer was used to dilute the mother liquor of the compound to be tested to obtain solution 1 of the compound to be tested at a concentration of 4000 nM, and then the solution 1 of the compound to be tested was serially diluted into solutions 2-10 of the compound to be tested at 9 concentrations with a gradient difference of three-fold. 5 μL of each concentration of solutions 1-10 of the compound to be tested was respectively taken and added into a 384-well plate as test wells; • c. 5 μL of the reaction buffer was added to the 384-well plate as positive control and blank control wells; • d. the reaction buffer was used to prepare a 15-PGDH protein solution at a concentration of 5 ng/μL, 5 μL of the 15-PGDH protein solution was taken and added to the test wells and positive control wells, and 5 μL of the reaction buffer was added to the blank control wells at the same time, then the plate was centrifuged at 2000 rpm for 30 seconds; • e. the reaction buffer was used to prepare 5 mM β-NAD and 2 mM PGF2α, respectively, which were mixed at 1:1 by volume to obtain a substrate mixture, 10 μL of the substrate mixture was taken and added to the test wells, positive control wells and blank control wells to start the reaction; • f. the fluorescence signal value (Ex/Em=340/450) of each well was detected continuously by using a multifunctional microplate reader.
• a) Continuous fluorescence signal values were analyzed by using the “kinetic calculations-slope calculation method” in the PHERAstar Data analysis software to obtain the slope of each test well; • b) the inhibition rate % was calculated by using the following formula:
inhibition rate %=[1−(slope of test well-signal value of positive control well)/(signal value of blank control well-average signal value of positive control well)]×100%. • c) calculation of IC50 and plotting of inhibition rate-dose curves: IC50 values were calculated by fitting compound concentrations and corresponding inhibition rates with a nonlinear regression (dose response-variable slope) via using GraphPad Prism 6.0.
The formula is shown below: Y=Bottom+(Top−Bottom)/(1+10^((Log IC50−X)*HillSlope)), wherein X is a log value of a concentration of the compound, and Y is inhibition rate %.

In the case of `CN1Cc2cc(-c3nc4cc(C(=O)N5CCCCC5)ccc4c4ccnn34)ccc2C1=O` [Example 81], the IC50 is less than 2 nM.

As to `CN1Cc2cc(C3=Nc4cc(C(=O)N5CCCCC5)ccc4C4=NCCN34)ccc2C1=O` [Example 82], the IC50 lay within 5 to 10 nM.
